Data taken from publication PMC12921513 (ACS Bio & Med Chem Au, 2025).
Values joined by “and” are separate entries in the source; they are usually repeats but may differ in a detail not shown here. Identical values can stand only once.

Tested on: SaFabI
Test: SaFabI fluorescence intensity counter-screen
Conditions: 30 μM inhibitor, 200 nM enzyme

Structure (SMILES)	SaFabI % inhibition, 30 μM
CS(=O)(=O)c1ccc2nc(NC(=O)NCc3nc(-c4ccc(Br)cc4)c[nH]3)sc2c1 [compound 2]	21.0%
O=C(NCc1nc(-c2ccc(Br)cc2)c[nH]1)Nc1nc2cc(Cl)ccc2s1 [compound 3]	9.8%
O=C(NCc1nc(-c2ccc(Br)cc2)c[nH]1)Nc1nc2cccc(C(F)(F)F)c2s1 [compound 4]	18%
Oc1cc(Cl)ccc1Oc1ccc(Cl)cc1Cl [triclosan, reference compound]	99% and 99.9%
